Test results reported in patent publication EP3884941A1, “INFLAMMASOME INHIBITORS AND USE THEREOF” (CENTRO DE INVESTIGACION PRINCIPE FELIPE, priority 2020, dated 2021).
Entries after “also recorded” stand apart in the source; their conditions may differ. Read-outs that look alike come from different tables or passages of the source.

Legend:
[1] = target: T1, ASC-mediated PC1 activation (Homo sapiens, UniProt P29466); assay: ASC-mediated PC1 reconstitution in vitro assay (primary screening); type: biochemical
T1 construct: His; made in house; host or cells: PC1: Sf9 insect cells (baculovirus)
T1 sequence (P29466 1-404): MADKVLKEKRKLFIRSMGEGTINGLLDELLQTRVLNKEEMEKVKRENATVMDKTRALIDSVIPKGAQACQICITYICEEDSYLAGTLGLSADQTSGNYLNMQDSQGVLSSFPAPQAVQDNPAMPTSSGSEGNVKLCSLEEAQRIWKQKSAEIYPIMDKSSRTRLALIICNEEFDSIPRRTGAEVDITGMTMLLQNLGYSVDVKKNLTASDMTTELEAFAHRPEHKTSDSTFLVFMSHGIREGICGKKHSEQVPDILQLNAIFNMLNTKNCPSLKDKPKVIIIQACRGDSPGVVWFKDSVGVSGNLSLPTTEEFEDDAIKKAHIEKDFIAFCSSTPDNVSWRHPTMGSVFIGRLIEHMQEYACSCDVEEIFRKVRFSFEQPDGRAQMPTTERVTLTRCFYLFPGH
Description: Recombinant PC1 (50 nM) was preincubated with the indicated concentrations of compounds for 20 min at RT in Assay Buffer (20 mM HEPES pH 7.5, 10 mM KCI, 1.5 mM MgCl2, 1mM EDTA, 1 mM EGTA, 1 mM DTT). Then 300 nM of ASC were added and incubated for another 10 min period. Caspase-1 activation was measured using fluorogenic substrate Ac-WEHD-AFC (80 µM; Enzo Life Sciences) by continuously monitoring the release of the AFC (7-Amino-4-trifluoromethylcoumarin) product in a Wallac Victor workstation. The compounds were initially tested at 20 µM with 1% of DMSO. Data are reported as the percentage of inhibition compared with the absence of the compound.
The materials and methods employed in these experiments are now described.

NLRP3 inflammasome [2] = assay: inflammasome activation cellular assay, LPS plus ATP, THP-1 cells; type: cell-based, human
Description: The MM01 compound was evaluated in the THP-1, or PMA-differentiated THP-1 cells (50 nM PMA for 24h) stimulated with lipopolysaccharide (LPS) plus adenosine triphosphate (ATP) to stimulate ASC-dependent inflammasomes NLRP3. Briefly, 1x10^6 cells were seeded in 6-well plates in 1 mL RPMI media that contained 1% FBS. Cells were either mock-treated or primed with compounds at the indicated concentrations for 30 min, followed by treatment with 100 ng/mL LPS (Sigma) and 2.5 mM ATP (Sigma) for 6 h at 37°C. In the case of nigericin stimulation, cells were primed with LPS for 3h, and then 10 µM nigericin (Sigma) was added for 30 min. Supernatants were harvested and clarified by centrifugation at 1500 rpm at RT, and a cytokine analysis was performed. Both IL-1β secretion and the release of IL-18were monitored by an ELISA assay (BD OptEIA™ Human IL-1β ELISA Kit and Human IL-18 Module Set eBioscience) following the manufacturer's instructions. Cell viability was analyzed in parallel by evaluating the release of lactate dehydrogenase (LDH) according to a commercial kit (CytoTox-ONE™ Homogeneous Membrane Integrity Assay; Promega). The release of LDH was calculated using the formula: the release of LDH (%) = 100x (Abs490 treated -Abs490 untreated cells)/ Abs490 untreated cells lysed with Triton 9% (maximum release of LDH).
The supernatants of the treated cells were precipitated by the chloroform-methanol method. Pellets were obtained by lysing cells in 25 mM of Tris-HCI pH 7.4, 1 mM EDTA, 1 mM EGTA and 1% SDS, plus protease and phosphatase inhibitors. The protein concentration was determined by the BCA protein assay. Samples were separated in a 14% SDS-PAGE gel, transferred to a nitrocellulose membrane and blocked with 5% skimmed milk for 1 h. Then the membrane was incubated overnight with primary antibodies: α-casp1 (1:1000; Cell Signaling 2225), α-IL-1β (1:1000; Acris R1130P), α-NLRP3 (1:1000; Cell Signaling 15101), α-tubulin (1:3000; Abcam ab6160) at 4°C. Membranes were washed and probed with the appropriate secondary antibody conjugated with peroxidase for enhanced chemiluminescence detection (Amersham Pharmacia Biotech).

NLRP3 inflammasome [3] = assay: murine peritoneal macrophages cellular assay, LPS plus ATP; type: cell-based, Mice (BALB/c)
Description: Mice (BALB/c) were euthanized, and 5 ml of cold medium was injected (20G needle) into the peritoneal region. The aspirated fluid from peritoneum was centrifuged for 10 min at 400 × g and the cell pellet resuspended in DMEM/F12-10 (1 ml). 40000 cells/well were plated in 24-well plates. Cells were allowed to adhere to the plate by culturing them 2 h at 37°C and then, non-adherent cells were removed by gently washing three times with warm PBS. Macrophages were primed for 4 h with 100 ng/ml pure LPS (Alexis Biochemicals Corporation), in serum-free IMDM medium followed by 30 min with 5 mM ATP. Supernatants were harvested and clarified by centrifugation at 1500 rpm at RT and cytokine, and caspase-1 activation analysis was performed as previously described in Example 3.

ASC oligomerization = ASC oligomerization assay (DSS crosslinking, immunoblotting); type: cell-based, human; settings: crosslinked pellets, LPS plus nigericin; MM01 10 µM, VX-765 5 µM
Description: PMA-differentiated THP-1 cells were seeded at 1x10^6 cells/ml in 6-well plates. Cells were treated with compounds for 30 min, primed with 100 ng/ml LPS for 3h and then stimulated with 10 µM nigericin for 30 min. The supernatants were removed, cells were rinsed in ice-cold PBS and lysed in NP-40 buffer (20 mM HEPES-KOH pH 7.5, 150 mM KCL, 1% NP-40 plus protease inhibitors). Lysates were centrifuged at 330 × g for 10 min at 4 °C. The pellets were washed and resuspended in PBS plus 2 mM disuccinimidyl suberate (DSS) and incubated at RT for 30 min with rotation. Samples were then centrifuged at 330 × g for 10 min at 4 °C. The supernatant was removed, and the cross-linked pellets were resuspended in sample buffer, boiled and analyzed by immunoblotting.

[4] = THP-1, LPS 100 ng/ml + ATP 2.5 mM, MM01 1, 2.5 or 5 µM, ELISA

For C=CCN1C(=O)/C(=C2/C(=O)Nc3ccccc32)SC1=S [MM01], the IC50 ([1]; PC1 50 nM, ASC 300 nM, substrate Ac-WEHD-AFC, read-out: IC50) was 500 ± 100 nM, the IC50 ([1]; dose-response curve 0.04 to 40 µM (Figure 1B), stated in words) was “in the nanomolar range” and the “formation of p20 subunit” value ([1]; immunoblotting of PC1 processing (Figure 1C)) was “decrease”. For the same molecule, the IL-1β secretion (NLRP3 inflammasome [2]; [4]) was “decrease”, the IL-18 secretion (NLRP3 inflammasome [2]; [4]) was “decrease” and the “caspase-1 and IL-1β processing” value (NLRP3 inflammasome [2]; THP-1, LPS + ATP, immunoblotting (Figure 3C)) was “decrease”. For the same molecule, the LDH release (NLRP3 inflammasome [2]; THP-1, LPS + ATP, pyroptosis / cell viability, MM01 1, 2.5 or 5 µM, VX-765 5 µM) was “significantly reduce; also recorded: significantively decreased”, the TNF-α release (NLRP3 inflammasome [3]) was “not correlated with a significant reduction” and the “release of LDH” value (NLRP3 inflammasome [3]) was “decreased”. For the same molecule, the IL-1β release (NLRP3 inflammasome [3]; at 5 and 10 µM of MM01) was “significant inhibition”, the IL-6 release (NLRP3 inflammasome [3]; at 5 and 10 µM of MM01) was “significant inhibition” and the ASC oligomerization (ASC oligomerization) was “inhibited”.
